Data reported in patent publication US20250163104A1, “MACROCYCLIC IMMUNOMODULATORS” (priority 2021, published 2025).
pIC50: −log10 of the molar value. Where a SMILES comes first, the peptide text is derived from it. Bridges are numbered along the chain shown (N, C = ends). [ ]: non-standard residue; d: D form. The star is where a group is joined. Phe(4-COOH) = N[C@@H](Cc1ccc(C(=O)O)cc1)C(=O)O; Bip = N[C@@H](Cc1ccc(-c2ccccc2)cc1)C(=O)O; Phe(3-F) = N[C@@H](Cc1cccc(F)c1)C(=O)O; Cit = NC(=O)NCCC[C@H](N)C(=O)O; Carboxymethyl = O=C(O)C*; Orn = NCCC[C@H](N)C(=O)O; Dab = NCC[C@H](N)C(=O)O; Dap = NC[C@H](N)C(=O)O

The molecules below were run against T1, human PD-1 / PD-L1-Ig binding on Jurkat cell line over-expressing human PD-1 (Jurkat-PD-1) (Homo sapiens, UniProt Q15116) (assay: Jurkat-PD-1 Cell Binding High-Content Screening Assay (CBA)). Conditions: Jurkat-PD-1 cells, PE-labeled PD-L1-Ig 20 nM final; read-out: Jurkat HPD1_PDL1 IC50.
T1 construct: expressed in transfected cells; host or cells: Jurkat
T1 sequence (Q15116 25-288): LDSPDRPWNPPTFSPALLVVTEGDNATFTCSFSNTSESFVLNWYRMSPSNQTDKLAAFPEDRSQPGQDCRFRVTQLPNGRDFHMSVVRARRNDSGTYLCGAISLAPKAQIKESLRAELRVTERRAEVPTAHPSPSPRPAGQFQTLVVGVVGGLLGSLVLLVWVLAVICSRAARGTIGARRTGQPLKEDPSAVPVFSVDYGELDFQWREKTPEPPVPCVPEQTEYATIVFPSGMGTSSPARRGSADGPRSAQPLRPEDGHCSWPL
Format: cell-based
Procedure, shortened: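 Compounds were preincubated with Jurkat-hPD-1 cells in DMEM plus 10% fetal calf serum for 2 h at 37° C. Phycoerythrin-labeled PD-L1-Ig (20 nM final) was then added for 1 hour. Cells were fixed in 4% paraformaldehyde with Hoechst 33342, and bound fluorescence was quantified by high-content imaging.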
A pIC50 of 7.31 was found for `CC(C)C[C@H]1NC(=O)[C@H](CCCN)NC(=O)[C@H](CCC(=O)O)NC(=O)[C@H](Cc2ccc(-c3ccccc3)cc2)NC(=O)[C@H](C(C)C)NC(=O)[C@H](Cc2c[nH]c3ccccc23)NC(=O)[C@H](CC(=O)O)NC(=O)[C@H](Cc2ccc(OCC(=O)O)cc2)NC(=O)[C@H](Cc2ccc(OCC(=O)O)cc2)NC(=O)CSC[C@@H](C(=O)N[C@@H](C)C(N)=O)NC(=O)[C@H]([C@@H](C)O)NC(=O)[C@H](C(C)C)NC(=O)[C@H](Cc2ccccc2)NC(=O)[C@H](CCN)NC1=O` [Compound 1668] ({CH2CO}-Y(Carboxymethyl)Y(Carboxymethyl)DWV[Bip]E[Orn][dL][Dab]FVTCA-NH2; thioether N-14) in this work. A pIC50 of 7.63 was found for `CC[C@H](C)[C@@H]1NC(=O)[C@H](Cc2ccc(-c3ccccc3)cc2)NC(=O)[C@H](C(C)C)NC(=O)[C@H](Cc2c[nH]c3ccccc23)NC(=O)[C@H](CC(=O)O)NC(=O)[C@H](Cc2ccc(OCC(=O)O)cc2)NC(=O)[C@H](CN)NC(=O)CSC[C@@H](C(=O)N[C@@H](C)C(N)=O)NC(=O)[C@H]([C@@H](C)O)NC(=O)[C@H](C(C)C)NC(=O)[C@H](Cc2cccc(F)c2)NC(=O)[C@H](CCN)NC(=O)[C@@H](CC(C)C)NC(=O)[C@H](CCCN)NC1=O` [Compound 1669] ({CH2CO}-[Dap]Y(Carboxymethyl)DWV[Bip]I[Orn][dL][Dab][Phe(3-F)]VTCA-NH2; thioether N-14) in this work. A pIC50 of 7.86 was found for `CC[C@H](C)[C@@H]1NC(=O)[C@H](Cc2ccc(-c3ccccc3)cc2)NC(=O)[C@H](C(C)C)NC(=O)[C@H](Cc2c[nH]c3ccccc23)NC(=O)[C@H](CC(=O)O)NC(=O)[C@H](Cc2ccc(C(=O)O)cc2)NC(=O)[C@H](Cc2ccc(OCC(=O)O)cc2)NC(=O)CSC[C@@H](C(=O)N[C@@H](C)C(N)=O)NC(=O)[C@H]([C@@H](C)O)NC(=O)[C@H](C(C)C)NC(=O)[C@H](Cc2cccc(F)c2)NC(=O)[C@H](CCN)NC(=O)[C@@H](CC(C)C)NC(=O)[C@H](CCCN)NC1=O` [Compound 1670] in this work. A pIC50 of 7.64 was found for `CC[C@H](C)[C@@H]1NC(=O)[C@H](Cc2ccc(-c3ccccc3)cc2)NC(=O)[C@H](C(C)C)NC(=O)[C@H](Cc2c[nH]c3ccccc23)NC(=O)[C@H](CC(=O)O)NC(=O)[C@H](Cc2ccc(OCC(=O)O)cc2)NC(=O)[C@H](Cc2ccc(OCC(=O)O)cc2)NC(=O)CSC[C@@H](C(=O)N[C@@H](C)C(N)=O)NC(=O)[C@H]([C@@H](C)O)NC(=O)[C@H](C(C)C)NC(=O)[C@H](Cc2cccc(F)c2)NC(=O)[C@H](CCN)NC(=O)[C@@H](CC(C)C)NC(=O)[C@H](CCCN)NC1=O` [Compound 1671] ({CH2CO}-Y(Carboxymethyl)Y(Carboxymethyl)DWV[Bip]I[Orn][dL][Dab][Phe(3-F)]VTCA-NH2; thioether N-14) in this work. A pIC50 of 7.95 was found for `CC(C)C[C@H]1NC(=O)[C@H](CCCN)NC(=O)[C@H](C(C)C)NC(=O)[C@H](Cc2ccc(-c3ccccc3)cc2)NC(=O)[C@H](C(C)C)NC(=O)[C@H](Cc2c[nH]c3ccccc23)NC(=O)[C@H](CC(=O)O)NC(=O)[C@H](Cc2ccc(OCC(=O)O)cc2)NC(=O)[C@H](CN)NC(=O)CSC[C@@H](C(=O)N[C@@H](C)C(N)=O)NC(=O)[C@H]([C@@H](C)O)NC(=O)[C@H](C(C)C)NC(=O)[C@H](Cc2cccc(F)c2)NC(=O)[C@H](CCN)NC1=O` [Compound 1672] ({CH2CO}-[Dap]Y(Carboxymethyl)DWV[Bip]V[Orn][dL][Dab][Phe(3-F)]VTCA-NH2; thioether N-14) in this work. A pIC50 of 7.87 was found for `CC(C)C[C@H]1NC(=O)[C@H](CCCN)NC(=O)[C@H](C(C)C)NC(=O)[C@H](Cc2ccc(-c3ccccc3)cc2)NC(=O)[C@H](C(C)C)NC(=O)[C@H](Cc2c[nH]c3ccccc23)NC(=O)[C@H](CC(=O)O)NC(=O)[C@H](Cc2ccc(C(=O)O)cc2)NC(=O)[C@H](Cc2ccc(OCC(=O)O)cc2)NC(=O)CSC[C@@H](C(=O)N[C@@H](C)C(N)=O)NC(=O)[C@H]([C@@H](C)O)NC(=O)[C@H](C(C)C)NC(=O)[C@H](Cc2cccc(F)c2)NC(=O)[C@H](CCN)NC1=O` [Compound 1673] in this work. A pIC50 of 7.77 was found for `CC(C)C[C@H]1NC(=O)[C@H](CCCN)NC(=O)[C@H](C(C)C)NC(=O)[C@H](Cc2ccc(-c3ccccc3)cc2)NC(=O)[C@H](C(C)C)NC(=O)[C@H](Cc2c[nH]c3ccccc23)NC(=O)[C@H](CC(=O)O)NC(=O)[C@H](Cc2ccc(OCC(=O)O)cc2)NC(=O)[C@H](Cc2ccc(OCC(=O)O)cc2)NC(=O)CSC[C@@H](C(=O)N[C@@H](C)C(N)=O)NC(=O)[C@H]([C@@H](C)O)NC(=O)[C@H](C(C)C)NC(=O)[C@H](Cc2cccc(F)c2)NC(=O)[C@H](CCN)NC1=O` [Compound 1674] ({CH2CO}-Y(Carboxymethyl)Y(Carboxymethyl)DWV[Bip]V[Orn][dL][Dab][Phe(3-F)]VTCA-NH2; thioether N-14) in this work. A pIC50 of 7.68 was found for `CC(C)C[C@H]1NC(=O)[C@H](CCCN)NC(=O)[C@H](CCCNC(N)=O)NC(=O)[C@H](Cc2ccc(-c3ccccc3)cc2)NC(=O)[C@H](C(C)C)NC(=O)[C@H](Cc2c[nH]c3ccccc23)NC(=O)[C@H](CC(=O)O)NC(=O)[C@H](Cc2ccc(C(=O)O)cc2)NC(=O)[C@H](Cc2ccc(OCC(=O)O)cc2)NC(=O)CSC[C@@H](C(=O)N[C@@H](C)C(N)=O)NC(=O)[C@H]([C@@H](C)O)NC(=O)[C@H](C(C)C)NC(=O)[C@H](Cc2cccc(F)c2)NC(=O)[C@H](CCN)NC1=O` [Compound 1675] ({CH2CO}-Y(Carboxymethyl)[Phe(4-COOH)]DWV[Bip][Cit][Orn][dL][Dab][Phe(3-F)]VTCA-NH2; thioether N-14) in this work. A pIC50 of 7.65 was found for `CC(C)C[C@H]1NC(=O)[C@H](CCCN)NC(=O)[C@H](CCCNC(N)=O)NC(=O)[C@H](Cc2ccc(-c3ccccc3)cc2)NC(=O)[C@H](C(C)C)NC(=O)[C@H](Cc2c[nH]c3ccccc23)NC(=O)[C@H](CC(=O)O)NC(=O)[C@H](Cc2ccc(OCC(=O)O)cc2)NC(=O)[C@H](Cc2ccc(OCC(=O)O)cc2)NC(=O)CSC[C@@H](C(=O)N[C@@H](C)C(N)=O)NC(=O)[C@H]([C@@H](C)O)NC(=O)[C@H](C(C)C)NC(=O)[C@H](Cc2cccc(F)c2)NC(=O)[C@H](CCN)NC1=O` [Compound 1676] ({CH2CO}-Y(Carboxymethyl)Y(Carboxymethyl)DWV[Bip][Cit][Orn][dL][Dab][Phe(3-F)]VTCA-NH2; thioether N-14) in this work. A pIC50 of 7.68 was found for `CC(C)C[C@H]1NC(=O)[C@H](CCCN)NC(=O)[C@H](CCC(=O)O)NC(=O)[C@H](Cc2ccc(-c3ccccc3)cc2)NC(=O)[C@H](C(C)C)NC(=O)[C@H](Cc2c[nH]c3ccccc23)NC(=O)[C@H](CC(=O)O)NC(=O)[C@H](Cc2ccc(OCC(=O)O)cc2)NC(=O)[C@H](CN)NC(=O)CSC[C@@H](C(=O)N[C@@H](C)C(N)=O)NC(=O)[C@H]([C@@H](C)O)NC(=O)[C@H](C(C)C)NC(=O)[C@H](Cc2cccc(F)c2)NC(=O)[C@H](CCN)NC1=O` [Compound 1677] ({CH2CO}-[Dap]Y(Carboxymethyl)DWV[Bip]E[Orn][dL][Dab][Phe(3-F)]VTCA-NH2; thioether N-14) in this work. A pIC50 of 7.28 was found for `CC[C@H](C)[C@@H]1NC(=O)[C@H](Cc2ccc(-c3ccccc3)cc2)NC(=O)[C@H](C(C)C)NC(=O)[C@H](Cc2c[nH]c3ccccc23)NC(=O)[C@H](CC(=O)O)NC(=O)[C@H](Cc2ccc(OCC(=O)O)cc2)NC(=O)[C@H](CN)NC(=O)CSC[C@@H](C(=O)N[C@@H](C)C(N)=O)NC(=O)[C@H]([C@@H](C)O)NC(=O)[C@H](C(C)C)NC(=O)[C@H](Cc2ccc(O)cc2)NC(=O)[C@H](CCN)NC(=O)[C@@H](CC(C)C)NC(=O)[C@H](CCCN)NC1=O` [Compound 1678] ({CH2CO}-[Dap]Y(Carboxymethyl)DWV[Bip]I[Orn][dL][Dab]YVTCA-NH2; thioether N-14) in this work. A pIC50 of 7.04 was found for `CC[C@H](C)[C@@H]1NC(=O)[C@H](Cc2ccc(-c3ccccc3)cc2)NC(=O)[C@H](C(C)C)NC(=O)[C@H](Cc2c[nH]c3ccccc23)NC(=O)[C@H](CC(=O)O)NC(=O)[C@H](Cc2ccc(C(=O)O)cc2)NC(=O)[C@H](Cc2ccc(OCC(=O)O)cc2)NC(=O)CSC[C@@H](C(=O)N[C@@H](C)C(N)=O)NC(=O)[C@H]([C@@H](C)O)NC(=O)[C@H](C(C)C)NC(=O)[C@H](Cc2ccc(O)cc2)NC(=O)[C@H](CCN)NC(=O)[C@@H](CC(C)C)NC(=O)[C@H](CCCN)NC1=O` [Compound 1679] ({CH2CO}-Y(Carboxymethyl)[Phe(4-COOH)]DWV[Bip]I[Orn][dL][Dab]YVTCA-NH2; thioether N-14) in this work. A pIC50 of 7.14 was found for `CC[C@H](C)[C@@H]1NC(=O)[C@H](Cc2ccc(-c3ccccc3)cc2)NC(=O)[C@H](C(C)C)NC(=O)[C@H](Cc2c[nH]c3ccccc23)NC(=O)[C@H](CC(=O)O)NC(=O)[C@H](Cc2ccc(OCC(=O)O)cc2)NC(=O)[C@H](Cc2ccc(OCC(=O)O)cc2)NC(=O)CSC[C@@H](C(=O)N[C@@H](C)C(N)=O)NC(=O)[C@H]([C@@H](C)O)NC(=O)[C@H](C(C)C)NC(=O)[C@H](Cc2ccc(O)cc2)NC(=O)[C@H](CCN)NC(=O)[C@@H](CC(C)C)NC(=O)[C@H](CCCN)NC1=O` [Compound 1680] ({CH2CO}-Y(Carboxymethyl)Y(Carboxymethyl)DWV[Bip]I[Orn][dL][Dab]YVTCA-NH2; thioether N-14) in this work. A pIC50 of 7.31 was found for `CC(C)C[C@H]1NC(=O)[C@H](CCCN)NC(=O)[C@H](C(C)C)NC(=O)[C@H](Cc2ccc(-c3ccccc3)cc2)NC(=O)[C@H](C(C)C)NC(=O)[C@H](Cc2c[nH]c3ccccc23)NC(=O)[C@H](CC(=O)O)NC(=O)[C@H](Cc2ccc(OCC(=O)O)cc2)NC(=O)[C@H](CN)NC(=O)CSC[C@@H](C(=O)N[C@@H](C)C(N)=O)NC(=O)[C@H]([C@@H](C)O)NC(=O)[C@H](C(C)C)NC(=O)[C@H](Cc2ccc(O)cc2)NC(=O)[C@H](CCN)NC1=O` [Compound 1681] ({CH2CO}-[Dap]Y(Carboxymethyl)DWV[Bip]V[Orn][dL][Dab]YVTCA-NH2; thioether N-14) in this work.
